Results reported in US20140107051A1, “ISOFLAVONES FOR TREATING MUCOPOLYSACCHARIDOSES” (INSTYTUT FARMACEUTYCZNY, priority 2005, published 2014).

Experiments:
[1] = system: cultured human skin fibroblasts derived from normal individuals; experiment: 35S-sulphate incorporation test of glycosaminoglycans synthesis, normal cells; format: cell-based; conditions: 30 μM; for activity at 30 µM: Homo sapiens, Skin fibroblast, DMSO control = 1, read-out: Relative GAG synthesis (converted to 1 cell), Normal cells
Procedure: (§1) The activity of isoflavones was evaluated by the measure of glycosaminoglycans synthesis in 35S-sulphate incorporation test comprising incubation of the radiolabelled 35S-sulfate into GAGs in cultured human skin fibroblasts derived from normal individuals (control) and patients affected with mucopolysaccharidose (Murata et al., Arch Biochem Biophys 2003; 413: 229-235).
(§2) The negative control was DMSO (diluent for genistein and all derivatives), the positive control—genistein. […] Experiment with each cell line has been repeated twice, and every measurement has been done twice.

[2] = system: fibroblasts of patients affected with MPS I; experiment: 35S-sulphate incorporation test of glycosaminoglycans synthesis, MPS I cells; format: cell-based, human; conditions: Homo sapiens, Fibroblast, 30 μM; DMSO control = 1; read-out: Relative GAG synthesis (converted to 1 cell), MPS I
Procedure: as §1, §2

[3] = system: cultured human skin fibroblasts derived from patients affected with mucopolysaccharidose; experiment: 35S-sulphate incorporation test of glycosaminoglycans synthesis, different human cell lines / MPS types; format: cell-based; conditions: 30 μM; both cell lines of Table 2
Procedure: as §1, §2

[4] = Proliferation 144 h (Table 4); format: cell-based; conditions: read-out: Proliferation 144 h IC50
MPS IIIA fibroblasts = experiment: Number of lysosomal structures by electron microscopy, MPS IIIA; format: cell-based, human; conditions: 30 μM
MPS IIIB fibroblasts = experiment: Number of lysosomal structures by electron microscopy, MPS IIIB; format: cell-based, human; conditions: 30 μM

| Compound | Inhibition in relation to genistein, first symbol (normal cells) [1] | activity at 30 µM [1] | activity at 30 µM [2] | influence on GAG synthesis compared with genistein (in words) [3] | CC50 at 24 h (in vitro) | IC50 [4] | Number of structures per 100 μm^2 of cellular cross section ± SD, amorphous (MPS IIIA fibroblasts) | Number of structures per 100 μm^2 of cellular cross section ± SD, complexed (MPS IIIA fibroblasts) | Number of structures per 100 μm^2 of cellular cross section ± SD, lamellar (MPS IIIA fibroblasts) | Number of structures per 100 μm^2 of cellular cross section ± SD, total number (MPS IIIA fibroblasts) | Number of structures per 100 μm^2 of cellular cross section ± SD, amorphous (MPS IIIB fibroblasts) | Number of structures per 100 μm^2 of cellular cross section ± SD, complexed (MPS IIIB fibroblasts) | Number of structures per 100 μm^2 of cellular cross section ± SD, lamellar (MPS IIIB fibroblasts) | Number of structures per 100 μm^2 of cellular cross section ± SD, total number (MPS IIIB fibroblasts) | CC50 at 48 h (in vitro) |
| --- | --- | --- | --- | --- | --- | --- | --- | --- | --- | --- | --- | --- | --- | --- | --- |
| O=c1c(-c2ccc(O)cc2)coc2cc(OCc3ccccc3)cc(O)c12 [IFG-043] | + | 17% | 44% | an activity comparable with genistein | 14.5 µM |  |  |  |  |  |  |  |  |  |  |
| CC(C)Oc1ccc(-c2coc3cc(O)cc(O)c3c2=O)cc1 [IFG-066] | 0/0 | 23% | 44% |  | > 30 µM | 14.6 µM | 0.18 ± 0.19 per 100 μm^2 | 0.16 ± 0.08 per 100 μm^2 | 0.13 ± 0.10 per 100 μm^2 | 0.48 ± 0.17 per 100 μm^2 | 0.08 ± 0.06 per 100 μm^2 | 0.11 ± 0.14 per 100 μm^2 | 0.15 ± 0.10 per 100 μm^2 | 0.34 ± 0.23 per 100 μm^2 | > 30 µM |
| O=C(O)COc1cc(O)c2c(=O)c(-c3ccc(O)cc3)coc2c1 [IFG-054] | 0/0 | 30% | 53% |  | > 30 µM | > 30 µM |  |  |  |  |  |  |  |  | > 30 µM |
| O=C(O)CCCC(=O)Oc1ccc(-c2coc3cc(OCc4ccccc4)cc(O)c3c2=O)cc1 [IFG-060] | − | 43% | 31% |  | 14.9 µM |  |  |  |  |  |  |  |  |  |  |
| C=CCOc1ccc(-c2coc3cc(OCC=C)cc(O)c3c2=O)cc1 [IFG-035] | 0 | 26% | 117% | an activity comparable with genistein, but only for one cell line | 22.6 µM |  |  |  |  |  |  |  |  |  |  |
| COc1ccc(COc2cc(O)c3c(=O)c(-c4ccc(O)cc4)coc3c2)cc1 [IFG-062] |  | 316% | 561% |  | 12.1 µM |  |  |  |  |  |  |  |  |  |  |
| CC(C)(C)OC(=O)COc1ccc(-c2coc3cc(O)cc(O)c3c2=O)cc1 [IFG-048] |  | 70% | 92% | an activity comparable with genistein, but only for one cell line | 20.3 µM |  |  |  |  |  |  |  |  |  |  |
| CC(C)Oc1ccc(-c2coc3cc(OCc4ccccc4)cc(OC(C)C)c3c2=O)cc1 [IFG-065] |  | 152% | 97% |  | 22.7 µM |  |  |  |  |  |  |  |  |  |  |
| Nc1ccccc1C(=O)Oc1ccc(-c2coc3cc(O)cc(O)c3c2=O)cc1 [IFG-001] |  | 84% | 170% |  | 13.9 µM |  |  |  |  |  |  |  |  |  |  |
| C=CCOc1ccc(-c2coc3cc(OCc4ccccc4)cc(O)c3c2=O)cc1 [IFG-051] | 0 | 32% | 96% | an activity comparable with genistein, but only for one cell line | 14.6 µM |  |  |  |  |  |  |  |  |  |  |
| CC(=O)OCC1OC(Oc2cc(O)c3c(=O)c(-c4ccc(O)cc4)coc3c2)C=CC1OC1OC(COC(C)=O)C(OC(C)=O)C(OC(C)=O)C1OC(C)=O (stereo not drawn) [IFG-021] |  | 57% | 92% |  | 11 µM |  |  |  |  |  |  |  |  |  |  |
| C=CCOc1cc(O)c2c(=O)c(-c3ccc(OC(=O)c4ccccc4OC(C)=O)cc3)coc2c1 [IFG-052] |  | 75% | 85% | an activity comparable with genistein, but only for one cell line | 15.8 µM | 12.2 µM |  |  |  |  |  |  |  |  | 21.5 µM |
| C=CCOc1cc(O)c2c(=O)c(-c3ccc(O)cc3)coc2c1 [IFG-027] | 0/0 | 22% | 57% | an activity comparable with genistein | 13.1 µM |  |  |  |  |  |  |  |  |  |  |
| COC(=O)COc1cc(O)c2c(=O)c(-c3ccc(O)cc3)coc2c1 [IFG-070, [5-hydroxy-3-(4-hydroxyphenyl)-4-oxo-4H-chromen-7-yloxy]-acetic acid methyl ester] |  |  |  |  | > 30 µM | 48.1 µM |  |  |  |  |  |  |  |  | > 30 µM |
| O=c1c(-c2ccc(O)cc2)coc2cc(OCC3CO3)cc(O)c12 (stereo not drawn) [IFG-050] | + | 10% | 73% | stronger influence on GAG synthesis than genistein | 11.6 µM |  |  |  |  |  |  |  |  |  |  |
| CC(C)Oc1ccc(-c2coc3cc(OCc4ccccc4)cc(O)c3c2=O)cc1 [IFG-064] |  | 68% | 60% | an activity comparable with genistein, but only for one cell line | 6.6 µM |  |  |  |  |  |  |  |  |  |  |
| O=c1c(-c2ccc(O)cc2)coc2cc(OCCO)cc(O)c12 [IFG-073, 5-hydroxy-7-(2-hydroxyethoxy)-3-(4-hydroxyphenyl)-chromen-4-one] |  |  |  |  | 27.5 µM | 16.1 µM |  |  |  |  |  |  |  |  | 21.7 µM |
| CC(=O)Oc1ccc(-c2coc3cc(OCc4ccccc4)cc(O)c3c2=O)cc1 [IFG-067] |  | 67% | 61% |  | 15.1 µM |  |  |  |  |  |  |  |  |  |  |
| CC(=O)OCCCCCOc1cc(O)c2c(=O)c(-c3ccc(O)cc3)coc2c1 [IFG-071, acetic acid 5-[5-hydroxy-3-(4-hydroxyphenyl)-4-oxo-4H-chromen-7-yloxy]-pentyl ester] |  |  |  |  | > 30 µM | 17.9 µM | 0.25 ± 0.11 per 100 μm^2 | 0.26 ± 0.09 per 100 μm^2 | 0.28 ± 0.13 per 100 μm^2 | 0.79 ± 0.22 per 100 μm^2 | 0.13 ± 0.09 per 100 μm^2 | 0.07 ± 0.06 per 100 μm^2 | 0.07 ± 0.07 per 100 μm^2 | 0.26 ± 0.13 per 100 μm^2 | 57.6 µM |
| O=C(Oc1cc(O)c2c(=O)c(-c3ccc(O)cc3)coc2c1)c1ccccc1O [IFG-034] |  | 40% | 93% |  | > 30 µM | 22.9 µM | 0.17 ± 0.09 per 100 μm^2 | 0.27 ± 0.14 per 100 μm^2 | 0.17 ± 0.09 per 100 μm^2 | 0.61 ± 0.20 per 100 μm^2 | 0.15 ± 0.08 per 100 μm^2 | 0.06 ± 0.05 per 100 μm^2 | 0.20 ± 0.16 per 100 μm^2 | 0.41 ± 0.16 per 100 μm^2 | > 30 µM |
| CC(C)(C#N)c1cc(COc2ccc(-c3coc4cc(OCc5ccccc5)cc(O)c4c3=O)cc2)cc(C(C)(C)C#N)c1 [IFG-053] | 0/0 | 30% | 52% | an activity comparable with genistein | > 30 µM | 53 µM |  |  |  |  |  |  |  |  | > 30 µM |
| CC(C)(C)OC(=O)COc1ccc(-c2coc3cc(OCC(=O)OC(C)(C)C)cc(O)c3c2=O)cc1 [IFG-042] | + | 14% | 49% | stronger influence on GAG synthesis than genistein | 22 µM |  |  |  |  |  |  |  |  |  |  |
| O=c1c(-c2ccc(O)cc2)coc2cc(OCCCO)cc(O)c12 [IFG-072, 5-hydroxy-3-(4-hydroxyphenyl)-7-(3-hydroxypropoxy)-chromen-4-one] |  |  |  |  | > 30 µM | 14.1 µM | 0.34 ± 0.17 per 100 μm^2 | 0.28 ± 0.10 per 100 μm^2 | 0.20 ± 0.10 per 100 μm^2 | 0.82 ± 0.23 per 100 μm^2 | 0.14 ± 0.10 per 100 μm^2 | 0.16 ± 0.08 per 100 μm^2 | 0.11 ± 0.12 per 100 μm^2 | 0.41 ± 0.20 per 100 μm^2 | 32.5 µM |
| C=CCOC(=O)Oc1cc(O)c2c(=O)c(-c3ccc(O)cc3)coc2c1 [IFG-063] |  | 75% | 187% |  | 51.5 µM |  |  |  |  |  |  |  |  |  |  |
| CCCCCCCCCCCCCCCC(=O)Oc1cc(O)c2c(=O)c(-c3ccc(O)cc3)coc2c1 [IFG-018] | 0/0 | 37% | 51% | stronger influence on GAG synthesis than genistein | 41.7 µM | 24.9 µM |  |  |  |  |  |  |  |  | 23.8 µM |
